# How the values were obtained:
# SIK2 = biological target: T1, SIK2 (Homo sapiens, UniProt Q9H0K1); assay: ADP-Glo kinase assay, SIK2; format: biochemical; conditions: ADP-Glo SIK kinase assay
# T1 construct: purchased ThermoFisher Scientific PV4792
# Method in brief: (§1)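 Enzyme–substrate mix was started with ATP and incubated 120 min at RT. ADP formed was quantified by ADP-Glo: 40 min ATP depletion, then 30 min detection reagent converting ADP to ATP for luciferase luminescence, which rises with kinase activity. Controls: 1% DMSO and 10 μM staurosporine (final).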
# SIK3 = biological target: T2, SIK3 (Homo sapiens, UniProt Q9Y2K2); assay: ADP-Glo kinase assay, SIK3; format: biochemical; conditions: ADP-Glo SIK kinase assay
# T2 construct: purchased SignalChem S12-11G-100
# Method in brief: as §1
# SIK1 = biological target: T3, SIK1 (Homo sapiens, UniProt P57059); assay: ADP-Glo kinase assay, SIK1; format: biochemical; conditions: ADP-Glo SIK kinase assay
# T3 construct: purchased Carna Biosciences 02-131
# Method in brief: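 Wells with 1% DMSO or 10 μM staurosporine (final) define the control window. The kinase reaction with substrate and ATP runs 120 min at RT, followed by ADP-Glo detection: ATP depletion (40 min) and ADP-derived luminescence (30 min).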
# [1] = tested on: LPS triggered IL-10 secretion in monocyte-derived macrophages (MdM); assay: MdM assay: LPS-triggered IL-10 (ELISA); format: cell-based, human; conditions: LPS 200 ng/mL, supernatant after 2 h, maximal fold change vs LPS only
# Method in brief: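 Human CD14+ monocytes differentiated 10 days with 100 ng/mL rhM-CSF into macrophages. Compound preincubated 1 h at 37 °C (0.2% DMSO), then LPS 200 ng/mL. IL-10 in supernatant after 2 h measured by sandwich ELISA.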
# T1 sequence (Q9H0K1 whole entry): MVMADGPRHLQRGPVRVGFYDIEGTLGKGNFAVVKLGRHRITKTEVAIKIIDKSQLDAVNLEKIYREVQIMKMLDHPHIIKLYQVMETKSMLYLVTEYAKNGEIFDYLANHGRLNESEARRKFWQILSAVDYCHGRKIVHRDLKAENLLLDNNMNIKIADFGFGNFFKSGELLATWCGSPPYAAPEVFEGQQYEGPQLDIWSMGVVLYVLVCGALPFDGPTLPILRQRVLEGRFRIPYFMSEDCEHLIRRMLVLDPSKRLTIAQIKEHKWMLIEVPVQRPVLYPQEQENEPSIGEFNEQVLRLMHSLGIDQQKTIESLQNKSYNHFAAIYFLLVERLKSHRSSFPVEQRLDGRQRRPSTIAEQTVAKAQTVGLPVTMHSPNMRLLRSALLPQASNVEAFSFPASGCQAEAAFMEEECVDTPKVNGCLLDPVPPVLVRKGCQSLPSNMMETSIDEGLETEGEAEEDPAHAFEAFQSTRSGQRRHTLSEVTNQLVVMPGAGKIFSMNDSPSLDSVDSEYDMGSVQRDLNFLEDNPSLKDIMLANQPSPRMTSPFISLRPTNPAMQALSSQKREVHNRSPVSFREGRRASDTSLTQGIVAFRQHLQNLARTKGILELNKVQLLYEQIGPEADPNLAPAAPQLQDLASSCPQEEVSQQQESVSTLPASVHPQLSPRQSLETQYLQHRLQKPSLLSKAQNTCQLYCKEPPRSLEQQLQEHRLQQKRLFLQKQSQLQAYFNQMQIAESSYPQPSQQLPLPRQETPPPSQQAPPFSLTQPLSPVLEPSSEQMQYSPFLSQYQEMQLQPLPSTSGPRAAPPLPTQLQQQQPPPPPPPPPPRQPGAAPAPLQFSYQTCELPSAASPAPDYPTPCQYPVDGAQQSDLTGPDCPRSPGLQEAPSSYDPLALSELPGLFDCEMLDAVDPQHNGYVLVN
# T3 sequence (P57059 whole entry): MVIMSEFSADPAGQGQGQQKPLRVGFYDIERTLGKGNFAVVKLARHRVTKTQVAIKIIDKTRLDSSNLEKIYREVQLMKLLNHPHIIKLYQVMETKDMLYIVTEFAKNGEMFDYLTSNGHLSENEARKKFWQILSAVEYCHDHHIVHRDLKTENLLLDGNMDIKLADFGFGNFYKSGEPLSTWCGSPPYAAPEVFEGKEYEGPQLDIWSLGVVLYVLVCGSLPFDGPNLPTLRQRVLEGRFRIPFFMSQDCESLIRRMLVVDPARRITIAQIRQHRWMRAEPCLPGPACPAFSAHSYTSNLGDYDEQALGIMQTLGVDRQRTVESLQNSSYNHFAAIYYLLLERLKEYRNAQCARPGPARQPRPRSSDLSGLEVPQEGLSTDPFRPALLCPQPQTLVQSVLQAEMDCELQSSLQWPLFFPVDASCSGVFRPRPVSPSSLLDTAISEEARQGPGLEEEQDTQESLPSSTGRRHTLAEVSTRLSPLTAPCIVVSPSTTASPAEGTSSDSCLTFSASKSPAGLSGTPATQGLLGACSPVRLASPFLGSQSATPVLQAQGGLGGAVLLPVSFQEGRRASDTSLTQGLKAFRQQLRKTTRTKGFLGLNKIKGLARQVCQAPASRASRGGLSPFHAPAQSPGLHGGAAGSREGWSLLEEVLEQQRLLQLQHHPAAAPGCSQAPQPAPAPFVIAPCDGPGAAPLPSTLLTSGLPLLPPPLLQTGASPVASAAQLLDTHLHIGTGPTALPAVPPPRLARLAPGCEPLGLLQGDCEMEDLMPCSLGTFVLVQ
# T2 sequence (Q9Y2K2 whole entry): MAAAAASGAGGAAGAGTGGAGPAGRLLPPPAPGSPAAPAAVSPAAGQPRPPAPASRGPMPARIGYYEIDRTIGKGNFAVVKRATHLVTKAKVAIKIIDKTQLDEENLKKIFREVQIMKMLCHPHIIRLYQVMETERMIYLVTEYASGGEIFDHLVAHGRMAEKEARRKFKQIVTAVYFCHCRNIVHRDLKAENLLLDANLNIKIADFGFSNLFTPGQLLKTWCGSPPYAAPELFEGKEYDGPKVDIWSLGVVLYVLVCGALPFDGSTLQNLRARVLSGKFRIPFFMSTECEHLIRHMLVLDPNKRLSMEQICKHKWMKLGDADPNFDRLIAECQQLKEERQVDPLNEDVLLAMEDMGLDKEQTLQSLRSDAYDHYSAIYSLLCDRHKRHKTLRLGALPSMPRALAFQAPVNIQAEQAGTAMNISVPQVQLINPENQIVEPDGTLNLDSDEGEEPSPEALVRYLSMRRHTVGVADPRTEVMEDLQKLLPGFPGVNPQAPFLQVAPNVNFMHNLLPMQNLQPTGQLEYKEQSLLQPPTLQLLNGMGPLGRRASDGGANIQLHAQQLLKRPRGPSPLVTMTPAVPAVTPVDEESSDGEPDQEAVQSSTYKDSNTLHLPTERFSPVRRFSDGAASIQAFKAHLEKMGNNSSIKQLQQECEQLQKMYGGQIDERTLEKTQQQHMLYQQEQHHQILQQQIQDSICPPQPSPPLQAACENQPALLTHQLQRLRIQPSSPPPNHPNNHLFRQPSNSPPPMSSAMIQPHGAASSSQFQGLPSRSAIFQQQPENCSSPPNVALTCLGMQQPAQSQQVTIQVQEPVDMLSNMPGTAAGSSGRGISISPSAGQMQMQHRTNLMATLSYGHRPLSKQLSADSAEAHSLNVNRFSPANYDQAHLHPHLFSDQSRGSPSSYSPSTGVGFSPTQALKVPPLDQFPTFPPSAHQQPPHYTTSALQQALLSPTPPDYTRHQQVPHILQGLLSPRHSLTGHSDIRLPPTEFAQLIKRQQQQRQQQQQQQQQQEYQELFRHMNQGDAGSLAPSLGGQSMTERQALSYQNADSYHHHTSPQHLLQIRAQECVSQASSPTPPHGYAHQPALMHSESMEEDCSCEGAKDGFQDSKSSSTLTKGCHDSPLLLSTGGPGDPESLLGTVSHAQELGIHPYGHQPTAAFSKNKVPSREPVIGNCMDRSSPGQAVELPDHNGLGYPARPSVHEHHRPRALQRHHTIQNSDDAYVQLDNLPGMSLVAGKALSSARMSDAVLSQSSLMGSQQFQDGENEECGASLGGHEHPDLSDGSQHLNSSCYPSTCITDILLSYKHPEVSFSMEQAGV
IC50 (SIK2),IC50 (SIK3),IC50 (SIK1),Compound,IL-10 FCmax median [1]
0.01 to 10 nM,0.01 to 10 nM,100 to 500 nM,"CN(C)CCOc1ccn2c(-c3cc4c(c(OC(F)F)c3)C(=O)N(CC(F)F)CC4)cnc2c1 [Cpd 150, 2-(2,2-difluoroethyl)-8-(difluoromethoxy)-6-[7-[2-(dimethylamino)ethoxy]imidazo[1,2-a]pyridin-3-yl]-3,4-dihydroisoquinolin-1-one]",++ (>1.5-4.5)
0.01 to 10 nM,0.01 to 10 nM,10 to 100 nM,"COc1cc(-c2cnc3cc(OCC(O)CN4CCOCC4)ccn23)cc(OC(F)F)c1C(=O)NC1CC1 (centres unmarked) [Cpd 330, N-cyclopropyl-2-(difluoromethoxy)-4-[7-(2-hydroxy-3-morpholino-propoxy)imidazo[1,2-a]pyridin-3-yl]-6-methoxy-benzamide]",++ (>1.5-4.5)

# — patent US12264156B2, “Compounds and pharmaceutical compositions thereof for the treatment of diseases” (GALAPAGOS NV, priority 2018, dated 2025)
